Assays:
DYT-TOR1A MEF EVs = assay: Quantitative LC-MS/MS proteomics of EVs from drug-treated DYT-TOR1A MEF cultures (ritonavir, salubrinal); assay type: cell-based, mouse; design: key to RTV Corrective Direction / RTV Corrective Direction, Grwd1 / RTV Corrective Direction, Srrm2 / RTV Corrective Direction, Rbm17 / RTV Corrective Direction, Dcaf8 / RTV Corrective Direction, Edil3 / RTV Corrective Direction, Timp3 / RTV Corrective Direction, Heatr3 / RTV Corrective Direction, Brd4 / RTV Corrective Direction, P3h4 / RTV Corrective Direction, Pacsin3 / RTV Corrective Direction, Naa50 / RTV Corrective Direction, Lpar6 / RTV Corrective Direction, Ndrg1 / RTV Corrective Direction, Kntc1 / RTV Corrective Direction, Cdk11b / RTV Corrective Direction, Sumo1 / RTV Corrective Direction, Lsm4 / RTV Corrective Direction, Hmga2 / RTV Corrective Direction, Cstf1 / RTV Corrective Direction, Tes / RTV Corrective Direction, Sbno1 / RTV Corrective Direction, Unc119b / RTV Corrective Direction, Cfdp1 / RTV Corrective Direction, Sec61b: YES = protein abundance effect opposite to DYT/WT; conditions: EV protein abundance; for RTV Corrective Direction: DYT + RTV (ritonavir) vs DYT, direction compared with DYT/WT; for DYT + RTV/DYT Cohen's d: ritonavir (RTV)-treated DYT vs DYT
WT MEF EVs = assay: Quantitative LC-MS/MS proteomics of EVs from ISRIB-treated WT MEF cultures; assay type: cell-based, mouse; design: key to ISRIB and DYT Parallel Direction / ISRIB and DYT Parallel Direction, Ctdsp1 / ISRIB and DYT Parallel Direction, Pcdh19 / ISRIB and DYT Parallel Direction, Tspan7 / ISRIB and DYT Parallel Direction, Myo1e / ISRIB and DYT Parallel Direction, Plpp3 / ISRIB and DYT Parallel Direction, Sh3bp4 / ISRIB and DYT Parallel Direction, Dnajc7 / ISRIB and DYT Parallel Direction, Drg1 / ISRIB and DYT Parallel Direction, Maea: YES = protein abundance effect similar to DYT/WT; conditions: EV protein abundance; for WT + ISRIB/WT Cohen's d: ISRIB-treated WT vs WT

| Substance | RTV Corrective Direction (DYT-TOR1A MEF EVs) | DYT + RTV/DYT Cohen's d (DYT-TOR1A MEF EVs) | WT + ISRIB/WT Cohen's d (WT MEF EVs) | ISRIB and DYT Parallel Direction (WT MEF EVs; WT + ISRIB vs WT, direction compared with DYT/WT) |
| --- | --- | --- | --- | --- |
| Myo18a | YES | 4.91 | 2.27 | – |
| Ddx39b | YES | 13.79 | −1.12 | YES |

Source: patent US20260266848A1, “COMPOSITIONS AND METHODS FOR DIAGNOSING AND TREATING DYSTONIA” (Duke University, priority 2023, published 2026)
